Assays:
type 2 diabetic patients = tested on: type 2 diabetic patients
From the text: C-aryl glucoside SGLT2 inhibitors are known to reduce blood glucose levels in diabetic patients, see U.S. Pat. No. 6,774,112, which is incorporated herein by reference in its entirety, but not known to increase urine volume. […] Metformin reduces plasma glucose concentration by non-renal mechanisms and is not known to induce glucosuria. […] On day 1 and day 14, the patients were examined for the levels of glucosuria and changes in urine volumes. […] Patients' serum uric acid levels were not measured in this experiment.

[1] = tested on: Healthy Normal Volunteers; assay: Urinary glucose excretion over 24 hr in healthy normal volunteers after single doses of SGLT2 inhibitors; format: in vivo, human; details: healthy subjects; 5, 20, 50 or 100 mg; compared to GSK 869,682; FIG. 1
patients with diabetes = details: 5, 25, or 100 mg, FIG. 2
From the text: The levels of urine glucose of all subjects are shown in the plot and the mean urine glucose is in the darker lines.

diabetic patients = assay: 12-week treatment of diabetic patients: urine glucose, HbA1C, urine volume, serum uric acid; format: in vivo, human; details: for Uric Acid (change in serum uric acid), mean ± standard deviation: 12 week treatment
SGLT2 relative to SGLT-1 = details: ratio of EC50 in SGLT1 and SGLT2 assay
From the text: Selectivity for SGLT2 of a given inhibitor can be determined by comparing the EC50 values measured in the SGLT1 and SGLT2 assay. […] The hSGLT1 and hSGLT2 sequences were cloned into pIRESneo vector (Clontech, Mountain View, Calif.) for mammalian expression and were stably transfected into Chinese hamster ovary (CHO) cells. SGLT-expressing clones were selected based on resistance to G418 antibiotic (GENETICIN®, Invitrogen, Carlsbad, Calif.) and activity in the ^14C-α-methyl-D-glucopyranoside (^14C-AMG) uptake assay.
Cells expressing hSGLT1 or hSGLT2 were maintained using standard cell culture techniques. […] Sodium-dependent ^14C-AMG uptake was calculated by subtracting the counts per minute (CPM) observed under sodium-free uptake conditions from the counts observed under sodium-containing conditions. Inhibitors were assayed at various concentrations in triplicate in the presence of sodium, and the percent inhibition was calculated by comparing CPM in inhibitor-containing wells with CPM in wells containing only DMSO vehicle. Phlorizin, a known SGLT inhibitor, was evaluated in parallel in every assay. […]

## CCOc1ccc(Cc2cc([C@@H]3O[C@H](CO)[C@@H](O)[C@H](O)[C@H]3O)ccc2Cl)cc1 [dapagliflozin PGS, dapagliflozin (S)-propylene glycol solvate]
Type 2 diabetic patients; two-week period
  Fasting serum glucose (FSG) levels: Dose-dependent reduction
  Postprandial glucose levels in oral glucose tolerance tests (OGTT): reduced postprandial glucose levels
  Urine volumes: no increase in urine volumes was apparent
Type 2 diabetic patients; vs placebo, FIG. 3
  Urinary glucose levels within a 24-hour time period: increased
[1]
  Glucosuric effect (glucose excretion/day within 24 hours), loss of calories in urine: significant loss of calories in the urine
Patients with diabetes
  Urine glucose excretion compared to placebo: higher levels of urine glucose excretion
Diabetic patients; 2.5 mg
  Uric Acid (change in serum uric acid), mean ± standard deviation: -1.03 ± 0.81 mg/dL
Diabetic patients; 5 mg
  Uric Acid (change in serum uric acid), mean ± standard deviation: -1.12 ± 0.84 mg/dL
Diabetic patients; 10 mg
  Uric Acid (change in serum uric acid), mean ± standard deviation: -0.98 ± 0.66 mg/dL
Diabetic patients; 20 mg
  Uric Acid (change in serum uric acid), mean ± standard deviation: -1.13 ± 0.78 mg/dL
Diabetic patients; 50 mg
  Uric Acid (change in serum uric acid), mean ± standard deviation: -1.14 ± 1.15 mg/dL
Diabetic patients; diabetic patients, 2.5-50 mg, after 12 weeks of treatment
  OGT: improved OGT
Diabetic patients; diabetic patients, all doses, after 12 weeks treatment
  Average of decrease in serum uric acid levels: approximately 1 g/dL

## CCOc1ccc(Cc2cc([C@@H]3O[C@H](CO)[C@@H](O)[C@H](O)[C@H]3O)ccc2Cl)cc1 [dapagliflozin]
SGLT2 relative to SGLT-1
  Selectivity for SGLT2 relative to SGLT-1: High selectivity for SGLT2

## CN(C)C(=N)N=C(N)N [metformin, reference compound]
Diabetic patients; metformin group
  Uric Acid (change in serum uric acid), mean ± standard deviation: 0.18 ± 0.53 mg/dL
Diabetic patients; diabetic patients, 1500 mg metformin
  Reduced HbA1C levels: 0.73%

Reference: patent US8791077B2, “Method for treating hyperuricemia employing an SGLT2 inhibitor and composition containing same” (AstraZeneca AB, priority 2008, dated 2014)
